The record followed here is paper PMC4459817, “Vasculotide reduces endothelial permeability and tumor cell extravasation in the absence of binding to or agonistic activation of Tie2” (EMBO Molecular Medicine, 2015).

The test system of assay [1] is Tie2 in lung, kidney, liver homogenates. As to the kind of experiment: in vivo Tie2 phosphorylation in liver, lungs, kidneys. Set-up: species or system mouse. As to the method: Tumor-free mice were treated for 1 week with either vehicle, VT (250 ng/2 days), SU (60 mg/kg/day), or VT+SU and then sacrificed 5 h after their last doses of treatment. Tissue homogenates derived from EC-rich organs (livers, lungs, kidneys) were subjected to Tie2 immunoprecipitation and then immunoblotted for phosphorylated Tie2 (Fig8: ‘p-Tie2’) or total Tie2 (Fig8: ‘Tie2’).
Figure 8 In vivo Vasculotide treatments: effects on Tie2 receptor phosphorylation in vascular-rich organs (liver, lungs, and kidneys) • Healthy non-tumor-bearing mice (n = 8–9 per group) were treated for 1 week with vehicle (Veh); Vasculotide 250 ng/2 days IP (VT); sunitinib 60 mg/kg/day PO (SU); or VT + SU. Tie2 immunoprecipitates from lung, kidney, or liver homogenates were pooled from two mice per treatment group and immunoblotted with an anti-Tie2 antibody (‘Tie2’) or an anti-phosphotyrosine antibody (‘p-Tie2’). • Densitometry analysis of immunoblots from (A). pTie2/Tie2 ratios were internally normalized to the vehicle group within each blot. Means ± SEM and P values (unpaired t-tests) are depicted. Source data are available online for this figure.
5. Bioluminescence imaging (BI) of tumor burden
For in vivo BI: Mice were injected intraperitoneally with 150mg/kg luciferin (Promega) 10 minutes prior to and anesthetized with isofluorane just before luminescent pseudocolor imaging (uniform settings: CCD camera locked at -105 °C, exposure=60s, f/1, subject size=1.5cm, bin=8, FOV=23.2cm, full image correction) using the IVIS 200 Imaging System (Caliper/PerkinElmer). Using the Living Image software (v2.50.1, Xenogen), weekly images were analyzed under uniform color range on grayscale photographic overlay. Total fluxes (photons/sec) were quantified within consistent regions of interest and statistically compared ideally at a timepoint before any deaths have occurred. […]
Quantification procedure involved visual survey of entire tissue sections and tallying of DAB-stained metastatic nodules sizes (# cells) at 20-40X on a Leica DM LB2 Microscope. […]

Assay [2] concerns tumor cells across dermal HMVECs. As to the kind of experiment: modified Boyden chamber, TC-CM stimulated tumor cell migration. The conditions noted are these: Fig4B; for TC migration in presence of TC-CM: 20 ng/mL VT or 400 ng/mL Ang1 vs PBS, paired t-test, n = 6 experimental replicates; for inhibition of TC migration, on average: 20 ng/mL VT. It is filed as cell-based, human. As to the method: To investigate this possibility in vitro, we performed modified Boyden chamber assays where we stimulated ECs with tumor cell-conditioned media (TC-CM)—that is, supplement-reduced EC growth media containing all the cytokines naturally secreted by LM2-4^luc, SN12^luc, or HT29^luc cells over 30 hours of hypoxic incubation (1% O2).
Meta-analyses of treatment effects on dextran permeability (A) and tumor cell migration (B), where each datapoint represents the mean of an independent experiment, averaged over 2–3 biological replicates (inserts) per treatment group and normalized internally within that same experiment.
Endothelial cells (ECs) were grown on cell culture inserts with uncoated 8-μm-pore PET filter membranes to 100% confluency. See Supplementary Fig S4 for detailed timelines. […] Permeability assays: A total of 100 μg of FITC-dextran (Sigma FD-20S) was dispensed into the upper chamber media. After 30 min of thrombin stimulation or 4–6 h of TC-CM stimulation, FITC fluorescence (ex/em = 490/520 nm) was measured from a 50 μl sample of the lower chamber media. Tumor cell extravasation assays: A total of 4 × 10^4 TCs freshly labeled with CellTracker™ Red CMPTX (Invitrogen C34552: ex/em = 577/602 nm) were seeded into each insert. Where EDTA was used in the permeability assay, the assay media was changed to remove EDTA before introducing TCs. After a 15- to 30-h incubation, the ECs and non-migrated TCs above insert membranes were removed with a cotton swab, whereas migrated/‘extravasated’ TCs and ECs below insert membranes were fixed in 4% PFA. Fixed membranes were mounted onto slides with DAPI stain. CMPTX fluorescence from migrated TCs was then quantified from 10× microscopy images using a MATLAB (MathWorks, Natick, MA, USA) script; five images (technical replicates) were analyzed per insert.
TCs were cultured in DMEM High Glucose basal media supplemented with 5% FBS and grown humidified incubators at 37 °C, 21%O2 and 5%CO2 unless otherwise specified. LM2-4 luc is a highly metastatically aggressive variant of the human breast carcinoma MDA-MB-231 cell line (derived through serial in vivo selection of lung metastases from orthotopic implantations in immunodeficient mice) that has been transfected with a firefly luciferase vector (Man et al, 2007; Ebos et al, 2009). HT29luc is a human colon carcinoma cell line also transfected with the luciferase gene (Hackl et al, 2013). SN12luc refers to a luciferase-tagged and highly metastatic clone of a human renal cell carcinoma cell line, SN12-

As to `CCN(CC)CCNC(=O)c1c(C)[nH]c(/C=C2\C(=O)Nc3ccc(F)cc32)c1C` [sunitinib, reference compound], in assay [1] (SU 60 mg/kg/day, stated in Discussion), the “Tie2 phosphorylation, sunitinib effect” value is given as “inhibition of Tie2 phosphorylation”.
On to “CHHHRHSF [Vasculotide, 4-armed maleimide-functionalized polyethylene glycol (PEG) backbone to link together four cysteine-capped T7 peptides, that is, CHHHRHSF]”, for which, in assay [2], the “TC migration in presence of TC-CM” value is on record as “P = 0.10 for VT”. The results for the “inhibition of TC migration, on average” value in assay [2] (LM2-4luc-conditioned media) and in assay [2] (SN12luc-conditioned media) were −43% and −23%, respectively. The “ratio of phosphorylated Tie2 relative to total Tie2 (pTie2/Tie2)” value in assay [1] (1 week, VT 250 ng/2 days IP, SU 60 mg/kg/day PO or VT + SU, liver, lungs, kidneys, n = 8–9, Fig8) is listed as “did not increase the ratio of phosphorylated Tie2 relative to total Tie2”. Further, the “lung-specific pTie2/Tie2 vs. vehicle” value in assay [1] (VT 250 ng/2 days IP, 1 week, unpaired t-test, Fig8) is recorded as “significantly lower”.

B1: recombinant human Ang1 (rhAng1) (ligand, UniProt Q15389 16-498, looked up)
chain: HIGCSNQRRSPENSGRRYNRIQHGQCAYTFILPEHDGNCRESTTDQYNTNALQRDAPHVEPDFSSQKLQHLEHVMENYTQWLQKLENYIVENMKSEMAQIQQNAVQNHTATMLEIGTSLLSQTAEQTRKLTDVETQVLNQTSRLEIQLLENSLSTYKLEKQLLQQTNEILKIHEKNSLLEHKILEMEGKHKEELDTLKEEKENLQGLVTRQTYIIQELEKQLNRATTNNSVLQKQQLELMDTVHNLVNLCTKEGVLLKGGKREEEKPFRDCADVYQAGFNKSGIYTIYINNMPEPKKVFCNMDVNGGGWTVIQHREDGSLDFQRGWKEYKMGFGNPSGEYWLGNEFIFAITSQRQYMLRIELMDWEGNRAYSQYDRFHIGNEKQNYRLYLKGHTGTAGKQSSLILHGADFSTKDADNDNCMCKCALMLTGGWWFDACGPSNLNGMFYTAGQNHGKLNGIKWHYFKGPSYSLRSTTMMIRPLDF
notes: angiopoietin-1, human, recombinant; also called angiopoietin-1; source: bought: R&D Systems (named for the Boyden chamber experiments)
For B1, in assay [2], the “TC migration in presence of TC-CM” value was “P < 0.05 for Ang1”.
